Target: T1, TRPV1 (Rattus norvegicus, UniProt O35433)
T1 construct: rat TRPV1 with an N-terminally fused camelidae anti-GFP nanobody (αGFPnb-TRPV1), co-expressed with eGFP-tagged ferritin dimer in HEK-293T cells
Experiment: agonist dose response in Ca2+-dependent SEAP reporter and fluorescent calcium imaging in HEK-293T cells expressing TRPV1
Assay type: cell-based

T1 sequence (O35433 whole entry, the tested form may be a part): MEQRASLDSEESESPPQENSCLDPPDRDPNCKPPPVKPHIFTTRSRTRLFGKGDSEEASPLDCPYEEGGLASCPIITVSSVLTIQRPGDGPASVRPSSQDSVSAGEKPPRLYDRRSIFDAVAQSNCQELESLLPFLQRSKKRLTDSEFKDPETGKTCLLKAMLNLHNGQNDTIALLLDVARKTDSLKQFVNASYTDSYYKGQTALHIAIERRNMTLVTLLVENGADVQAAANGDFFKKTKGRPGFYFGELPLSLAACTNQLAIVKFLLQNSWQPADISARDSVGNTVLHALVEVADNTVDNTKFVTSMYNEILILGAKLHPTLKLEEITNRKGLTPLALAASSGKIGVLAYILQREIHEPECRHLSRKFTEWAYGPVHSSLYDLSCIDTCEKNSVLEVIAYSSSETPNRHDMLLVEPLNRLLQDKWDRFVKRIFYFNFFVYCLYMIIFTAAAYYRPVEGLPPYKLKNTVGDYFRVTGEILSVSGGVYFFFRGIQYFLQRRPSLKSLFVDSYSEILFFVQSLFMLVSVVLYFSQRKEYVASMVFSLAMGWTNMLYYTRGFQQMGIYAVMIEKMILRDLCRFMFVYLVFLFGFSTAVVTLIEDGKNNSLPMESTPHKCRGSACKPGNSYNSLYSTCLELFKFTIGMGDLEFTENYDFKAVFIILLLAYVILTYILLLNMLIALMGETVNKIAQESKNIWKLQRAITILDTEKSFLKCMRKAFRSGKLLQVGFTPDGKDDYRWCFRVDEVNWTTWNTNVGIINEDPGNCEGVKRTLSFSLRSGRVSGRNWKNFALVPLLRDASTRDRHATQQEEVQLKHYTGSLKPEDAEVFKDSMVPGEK

Q: With `COc1cc(CNC(=O)CCCC/C=C/C(C)C)ccc1O` [capsaicin] as the compound, how does the “agonist dose response in Ca2+-dependent SEAP reporter and fluorescent calcium im” value read?
A: The value was “Dose dependent TRPV1-mediated SEAP production was observed with respect to both capsaicin and inhibitor concentration”.
